Test results published in PubChem BioAssay AID2060490 (Molecular Pharmacology Branch, DTP, NCI, 2025).

System: 885512-296-R-J2-PDC complex spheroid viability
Experiment: Anticancer human tumor 885512-296-R-J2-PDC patient-derived breast carcinoma cell line growth inhibition [GQUAD]
Conditions: for IC50: curve of first compound; for viability, T/C: stronger effect = lower value
In short: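 Tumor cells were grown as complex spheroids with HUVEC endothelial cells and mesenchymal stem cells as stroma. G-quadruplex stabilizers were combined with targeted agents over half-log dilutions from near the clinical Cmax, or from 10 microM.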

[1] = second compound 0.0316 µM, first compound 0.0316 µM
[2] = second compound 0.0316 µM, first compound 0.1 µM
[3] = second compound 0.0316 µM, first compound 0.316 µM
[4] = second compound 0.0316 µM, first compound 1 µM
[5] = second compound 0.0316 µM, first compound 3.16 µM
[6] = second compound 0.0316 µM, first compound 10 µM
[7] = second compound 0.1 µM, first compound 0.0316 µM
[8] = second compound 0.1 µM, first compound 0.1 µM
[9] = second compound 0.1 µM, first compound 0.316 µM
[10] = second compound 0.1 µM, first compound 1 µM
[11] = second compound 0.1 µM, first compound 3.16 µM
[12] = second compound 0.1 µM, first compound 10 µM
[13] = second compound 0.316 µM, first compound 0.0316 µM
[14] = second compound 0.316 µM, first compound 0.1 µM
[15] = second compound 0.316 µM, first compound 0.316 µM
[16] = second compound 0.316 µM, first compound 1 µM
[17] = second compound 0.316 µM, first compound 3.16 µM
[18] = second compound 0.316 µM, first compound 10 µM
[19] = second compound 1 µM, first compound 0.0316 µM
[20] = second compound 1 µM, first compound 0.1 µM
[21] = second compound 1 µM, first compound 0.316 µM
[22] = second compound 1 µM, first compound 1 µM
[23] = second compound 1 µM, first compound 3.16 µM
[24] = second compound 1 µM, first compound 10 µM
[25] = second compound 3.16 µM, first compound 0.0316 µM
[26] = second compound 3.16 µM, first compound 0.1 µM
[27] = second compound 3.16 µM, first compound 0.316 µM
[28] = second compound 3.16 µM, first compound 1 µM
[29] = second compound 3.16 µM, first compound 3.16 µM
[30] = second compound 3.16 µM, first compound 10 µM
[31] = second compound 10 µM, first compound 0.0316 µM
[32] = second compound 10 µM, first compound 0.1 µM
[33] = second compound 10 µM, first compound 0.316 µM
[34] = second compound 10 µM, first compound 1 µM
[35] = second compound 10 µM, first compound 3.16 µM
[36] = second compound 10 µM, first compound 10 µM
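Note: spheroids exposed to the compounds for one week.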
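Throughout, for viability, T/C: percent of tumor spheroid viability relative to DMSO vehicle control wells.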

## C#Cc1c(F)ccc2cc(O)cc(-c3ncc4c(N5CC6CCC(C5)N6)nc(OCC56CCCN5CC(F)C6)nc4c3F)c12 (stereo not drawn) + CN(C)c1ccc(Nc2c3ccc(NC(=O)CCN4CCCC4)cc3nc3cc(NC(=O)CCN4CCCC4)ccc23)cc1
Second compound 0.0316 µM
  IC50: > 10 µM
Second compound 0.1 µM
  IC50: > 10 µM
Second compound 0.316 µM
  IC50: > 10 µM
Second compound 1 µM
  IC50: > 10 µM
Second compound 3.16 µM
  IC50: 7.98 µM
Second compound 10 µM
  IC50: < 0.0316 µM
[1]
  viability, T/C: 108%
[2]
  viability, T/C: 95.7%
[3]
  viability, T/C: 105%
[4]
  viability, T/C: 96.8%
[5]
  viability, T/C: 106%
[6]
  viability, T/C: 87.6%
[7]
  viability, T/C: 110%
[8]
  viability, T/C: 86.5%
[9]
  viability, T/C: 99.8%
[10]
  viability, T/C: 98.4%
[11]
  viability, T/C: 89%
[12]
  viability, T/C: 85.4%
[13]
  viability, T/C: 105%
[14]
  viability, T/C: 99.3%
[15]
  viability, T/C: 96.6%
[16]
  viability, T/C: 89.2%
[17]
  viability, T/C: 91.4%
[18]
  viability, T/C: 87.5%
[19]
  viability, T/C: 88.9%
[20]
  viability, T/C: 97.7%
[21]
  viability, T/C: 99%
[22]
  viability, T/C: 102%
[23]
  viability, T/C: 94.5%
[24]
  viability, T/C: 104%
[25]
  viability, T/C: 95.3%
[26]
  viability, T/C: 106%
[27]
  viability, T/C: 97.2%
[28]
  viability, T/C: 89.4%
[29]
  viability, T/C: 86.1%
[30]
  viability, T/C: 41.2%
[31]
  viability, T/C: 21.5%
[32]
  viability, T/C: 15.8%
[33]
  viability, T/C: 18.9%
[34]
  viability, T/C: 13.7%
[35]
  viability, T/C: 13.9%
[36]
  viability, T/C: 1.6%

## COc1ccc([C@@H](O)c2cc(-c3ncnc4cc(N5CCOCC5)ccc34)c(F)cc2Cl)nn1 + Cc1[nH]c2ccc(F)cc2c1-c1nc2c3cccnc3c3ncccc3c2[nH]1
Second compound 0.0316 µM
  IC50: > 10 µM
Second compound 0.1 µM
  IC50: > 10 µM
Second compound 0.316 µM
  IC50: > 10 µM
Second compound 1 µM
  IC50: 4.34 µM
Second compound 3.16 µM
  IC50: < 0.0316 µM
Second compound 10 µM
  IC50: < 0.0316 µM
[1]
  viability, T/C: 114%
[2]
  viability, T/C: 92.6%
[3]
  viability, T/C: 95.5%
[4]
  viability, T/C: 100%
[5]
  viability, T/C: 94.2%
[6]
  viability, T/C: 58.7%
[7]
  viability, T/C: 121%
[8]
  viability, T/C: 98%
[9]
  viability, T/C: 104%
[10]
  viability, T/C: 94%
[11]
  viability, T/C: 83.7%
[12]
  viability, T/C: 51.7%
[13]
  viability, T/C: 103%
[14]
  viability, T/C: 96.7%
[15]
  viability, T/C: 85.9%
[16]
  viability, T/C: 94.4%
[17]
  viability, T/C: 73.6%
[18]
  viability, T/C: 57.5%
[19]
  viability, T/C: 73.7%
[20]
  viability, T/C: 85.9%
[21]
  viability, T/C: 67.6%
[22]
  viability, T/C: 68.7%
[23]
  viability, T/C: 59.2%
[24]
  viability, T/C: 30%
[25]
  viability, T/C: 11.3%
[26]
  viability, T/C: 6.47%
[27]
  viability, T/C: 12.8%
[28]
  viability, T/C: 5.75%
[29]
  viability, T/C: 10.1%
[30]
  viability, T/C: 3.06%
[31]
  viability, T/C: 1.38%
[32]
  viability, T/C: 2.32%
[33]
  viability, T/C: 1.63%
[34]
  viability, T/C: 1.42%
[35]
  viability, T/C: 1.48%
[36]
  viability, T/C: 1.5%

## O=c1[nH]cc(F)c(=O)[nH]1 + CN(C)c1ccc(Nc2c3ccc(NC(=O)CCN4CCCC4)cc3nc3cc(NC(=O)CCN4CCCC4)ccc23)cc1
Second compound 0.0316 µM
  IC50: > 10 µM
Second compound 0.1 µM
  IC50: > 10 µM
Second compound 0.316 µM
  IC50: > 10 µM
Second compound 1 µM
  IC50: > 10 µM
Second compound 3.16 µM
  IC50: > 10 µM
Second compound 10 µM
  IC50: < 0.0316 µM
[1]
  viability, T/C: 100%
[2]
  viability, T/C: 92.7%
[3]
  viability, T/C: 91.6%
[4]
  viability, T/C: 98.8%
[5]
  viability, T/C: 58.7%
[6]
  viability, T/C: 64.3%
[7]
  viability, T/C: 101%
[8]
  viability, T/C: 108%
[9]
  viability, T/C: 117%
[10]
  viability, T/C: 96.4%
[11]
  viability, T/C: 59.5%
[12]
  viability, T/C: 60.1%
[13]
  viability, T/C: 105%
[14]
  viability, T/C: 98.7%
[15]
  viability, T/C: 120%
[16]
  viability, T/C: 102%
[17]
  viability, T/C: 62.3%
[18]
  viability, T/C: 60%
[19]
  viability, T/C: 96.4%
[20]
  viability, T/C: 102%
[21]
  viability, T/C: 97.5%
[22]
  viability, T/C: 84%
[23]
  viability, T/C: 55.8%
[24]
  viability, T/C: 58.4%
[25]
  viability, T/C: 90.9%
[26]
  viability, T/C: 96.9%
[27]
  viability, T/C: 104%
[28]
  viability, T/C: 77.9%
[29]
  viability, T/C: 64.3%
[30]
  viability, T/C: 59.1%
[31]
  viability, T/C: 24.8%
[32]
  viability, T/C: 20.1%
[33]
  viability, T/C: 19.2%
[34]
  viability, T/C: 25.5%
[35]
  viability, T/C: 23.2%
[36]
  viability, T/C: 18%

## CC1COCCN1c1cc(C2(S(C)(=N)=O)CC2)nc(-c2ccnc3[nH]ccc23)n1 (stereo not drawn) + Cc1[nH]c2ccc(F)cc2c1-c1nc2c3cccnc3c3ncccc3c2[nH]1
Second compound 0.0316 µM
  IC50: 0.838 µM
Second compound 0.1 µM
  IC50: 0.868 µM
Second compound 0.316 µM
  IC50: 0.555 µM
Second compound 1 µM
  IC50: 0.147 µM
Second compound 3.16 µM
  IC50: < 0.0316 µM
Second compound 10 µM
  IC50: < 0.0316 µM
[1]
  viability, T/C: 103%
[2]
  viability, T/C: 105%
[3]
  viability, T/C: 85.6%
[4]
  viability, T/C: 44.9%
[5]
  viability, T/C: 7.65%
[6]
  viability, T/C: 5.02%
[7]
  viability, T/C: 125%
[8]
  viability, T/C: 108%
[9]
  viability, T/C: 92.1%
[10]
  viability, T/C: 46.1%
[11]
  viability, T/C: 6.65%
[12]
  viability, T/C: 3.91%
[13]
  viability, T/C: 102%
[14]
  viability, T/C: 94.2%
[15]
  viability, T/C: 72%
[16]
  viability, T/C: 28%
[17]
  viability, T/C: 4.02%
[18]
  viability, T/C: 4.62%
[19]
  viability, T/C: 80.4%
[20]
  viability, T/C: 55.6%
[21]
  viability, T/C: 37%
[22]
  viability, T/C: 5.55%
[23]
  viability, T/C: 3.67%
[24]
  viability, T/C: 3.74%
[25]
  viability, T/C: 10.4%
[26]
  viability, T/C: 5.19%
[27]
  viability, T/C: 3.19%
[28]
  viability, T/C: 1.97%
[29]
  viability, T/C: 1.51%
[30]
  viability, T/C: 1.38%
[31]
  viability, T/C: 1.16%
[32]
  viability, T/C: 1.65%
[33]
  viability, T/C: 1.5%
[34]
  viability, T/C: 1.57%
[35]
  viability, T/C: 1.94%
[36]
  viability, T/C: 1.43%
